Laboratory results as given in US20250353891A1 (MEDIMMUNE LIMITED, priority 2022, published 2025).
Like-named read-outs stand apart in the source and are kept apart here. Starred links: 1 amine or outer side, 2 acyl side, 3 side chain; linkers in the order of their positions; H or OH if unused. Non-standard residues stand in square brackets, D forms with d. Residues, ends and D or L forms follow the SMILES beside them. Groups on a side chain read outwards from the residue. *: point of attachment. C18 diacid = O=C(O)CCCCCCCCCCCCCCCCC(=O)*; γGlu = O=C(O)[C@H](CCC(=O)[*:2])N[*:1]; αMeF = C[C@](N)(Cc1ccccc1)C(=O)O; AEEA = NCCOCCOCC(=O)O; Aib = CC(C)(N)C(=O)O

Key:
[1] = biological target: human GLP-1 receptor (hGLP-1R) (Homo sapiens, UniProt P43220); assay: cAMP production (HTRF) in CHO cells expressing hGLP-1R; format: cell-based; set-up: expressed in transfected cells; conditions: for EC50: cAMP in CHO hGLP-1R cells, geometric mean, read-out: hGLP-1R EC50; for % Relative Potency Ratio: % GLP-1R activity relative to GLP-1 / % GlucR activity relative to glucagon
Chain of human GLP-1 receptor (hGLP-1R) (P43220 24-463): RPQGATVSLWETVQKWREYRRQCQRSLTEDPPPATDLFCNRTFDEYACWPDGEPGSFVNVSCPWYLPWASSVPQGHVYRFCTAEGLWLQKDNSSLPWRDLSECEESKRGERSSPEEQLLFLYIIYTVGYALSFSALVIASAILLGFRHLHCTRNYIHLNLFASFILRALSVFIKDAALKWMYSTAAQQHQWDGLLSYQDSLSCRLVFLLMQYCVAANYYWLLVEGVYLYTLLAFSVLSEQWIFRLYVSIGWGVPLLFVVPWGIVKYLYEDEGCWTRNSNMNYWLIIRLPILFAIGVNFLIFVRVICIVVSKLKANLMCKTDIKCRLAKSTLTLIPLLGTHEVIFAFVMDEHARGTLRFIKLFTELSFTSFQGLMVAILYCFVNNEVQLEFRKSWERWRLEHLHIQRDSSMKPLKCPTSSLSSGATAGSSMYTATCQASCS
Summary of the method: (§1)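 Cells were resuspended in assay buffer at batch-optimized density, typically 1×10^5 cells/mL for hGLP-1R and 2×10^5 cells/mL for hGCGR. After 30 min incubation at room temperature with compound, cAMP was measured by two-step HTRF. EC50 values came from 4-parameter logistic fits of % Delta F.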

[2] = biological target: human glucagon receptor (hGCGR) (Homo sapiens, UniProt P47871); assay: cAMP production (HTRF) in CHO cells expressing hGCGR; format: cell-based; set-up: expressed in transfected cells; conditions: cAMP in CHO hGCGR cells, geometric mean, read-out: hGluc-R EC50
Chain of human glucagon receptor (hGCGR) (P47871 26-477): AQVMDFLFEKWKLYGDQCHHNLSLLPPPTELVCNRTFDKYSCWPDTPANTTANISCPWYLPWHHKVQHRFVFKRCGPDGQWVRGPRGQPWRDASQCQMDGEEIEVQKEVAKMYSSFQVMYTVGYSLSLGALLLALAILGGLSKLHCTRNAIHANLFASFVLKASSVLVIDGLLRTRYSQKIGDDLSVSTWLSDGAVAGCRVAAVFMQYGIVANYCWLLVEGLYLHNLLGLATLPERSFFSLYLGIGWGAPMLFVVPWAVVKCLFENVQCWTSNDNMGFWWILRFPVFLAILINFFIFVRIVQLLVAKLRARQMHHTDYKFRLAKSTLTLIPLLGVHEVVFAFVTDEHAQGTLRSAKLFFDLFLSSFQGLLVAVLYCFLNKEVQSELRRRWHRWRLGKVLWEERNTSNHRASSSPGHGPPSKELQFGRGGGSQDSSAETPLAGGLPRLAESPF
Summary of the method: as §1

[3] = Table 6, peptides modified at position 17
[4] = Table 7, peptides modified at position 20

| EC50 [1, 3] | % Relative Potency Ratio ([1]; Table 6) | EC50 [2, 3] | EC50 [1, 4] | % Relative Potency Ratio ([1]; Table 7) | EC50 [2, 4] | Structure (SMILES) |
| --- | --- | --- | --- | --- | --- | --- |
| 0.0316 nM | 11.3 | 0.18 nM |  |  |  | CC[C@H](C)[C@H](NC(=O)[C@H](Cc1ccccc1)NC(=O)[C@H](CC(=O)O)NC(=O)[C@H](CCCNC(=N)N)NC(=O)[C@H](C)NC(=O)[C@H](CCCNC(=N)N)NC(=O)[C@H](CCCCNC(=O)COCCOCCNC(=O)COCCOCCNC(=O)CC[C@H](NC(=O)CCCCCCCCCCCCCCCCC(=O)O)C(=O)O)NC(=O)[C@@H](NC(=O)[C@H](CC(=O)O)NC(=O)[C@H](CC(C)C)NC(=O)[C@](C)(Cc1ccccc1)NC(=O)[C@H](CCCCN)NC(=O)[C@H](CO)NC(=O)[C@@H](NC(=O)[C@H](CC(=O)O)NC(=O)[C@H](CO)NC(=O)[C@@H](NC(=O)[C@H](Cc1ccccc1)NC(=O)[C@@H](NC(=O)CNC(=O)[C@H](CCC(N)=O)NC(=O)C(C)(C)NC(=O)[C@@H](N)Cc1c[nH]cn1)[C@@H](C)O)[C@@H](C)O)C(C)C)[C@@H](C)O)C(=O)N[C@@H](C)C(=O)N[C@@H](Cc1c[nH]c2ccccc12)C(=O)N[C@@H](CC(C)C)C(=O)N[C@@H](CC(C)C)C(=O)N[C@@H](CCC(=O)O)C(=O)NC(C)(C)C(=O)NCC(=O)O [Peptide 199] (H-H[Aib]QGTFTSDVSK[αMeF]LDTK([AEEA-AEEA-γGlu-C18 diacid])RARDFIAWLLE[Aib]G-OH) |
| 0.0227 nM | 8.5 | 0.0977 nM |  |  |  | CC(C)C[C@H](NC(=O)[C@H](Cc1c[nH]c2ccccc12)NC(=O)[C@H](C)NC(=O)[C@@H](NC(=O)[C@H](Cc1ccccc1)NC(=O)[C@H](CC(=O)O)NC(=O)[C@H](CCCNC(=N)N)NC(=O)[C@H](C)NC(=O)[C@H](CCCNC(=N)N)NC(=O)[C@H](CCCCNC(=O)COCCOCCNC(=O)COCCOCCNC(=O)CC[C@H](NC(=O)CCCCCCCCCCCCCCCCC(=O)O)C(=O)O)NC(=O)[C@@H](NC(=O)[C@H](CC(=O)O)NC(=O)[C@H](CC(C)C)NC(=O)[C@](C)(Cc1ccccc1)NC(=O)[C@H](CCCCN)NC(=O)[C@H](CO)NC(=O)[C@@H](NC(=O)[C@H](CC(=O)O)NC(=O)[C@H](CO)NC(=O)[C@@H](NC(=O)[C@H](Cc1ccccc1)NC(=O)[C@@H](NC(=O)CNC(=O)[C@H](CCC(N)=O)NC(=O)C(C)(C)NC(=O)[C@@H](N)Cc1c[nH]cn1)[C@@H](C)O)[C@@H](C)O)C(C)C)[C@@H](C)O)C(C)C)C(=O)N[C@@H](CC(C)C)C(=O)N[C@@H](CCC(=O)O)C(=O)NC(C)(C)C(=O)NCC(=O)O [Peptide 200] (H-H[Aib]QGTFTSDVSK[αMeF]LDTK([AEEA-AEEA-γGlu-C18 diacid])RARDFVAWLLE[Aib]G-OH) |
| 0.0227 nM | 15.9 | 0.183 nM |  |  |  | CC(C)C[C@H](NC(=O)[C@H](Cc1c[nH]c2ccccc12)NC(=O)[C@H](C)NC(=O)[C@@H](NC(=O)[C@H](Cc1ccccc1)NC(=O)[C@H](CC(=O)O)NC(=O)[C@H](CCCNC(=N)N)NC(=O)[C@H](C)NC(=O)[C@H](CCCNC(=N)N)NC(=O)[C@H](CCCCNC(=O)COCCOCCNC(=O)COCCOCCNC(=O)CC[C@H](NC(=O)CCCCCCCCCCCCCCCCC(=O)O)C(=O)O)NC(=O)[C@@H](NC(=O)[C@H](CC(=O)O)NC(=O)[C@H](CC(C)C)NC(=O)[C@](C)(Cc1ccccc1)NC(=O)[C@H](CCCCN)NC(=O)[C@H](CO)NC(=O)[C@@H](NC(=O)[C@H](CC(=O)O)NC(=O)[C@H](CO)NC(=O)[C@@H](NC(=O)[C@H](Cc1ccccc1)NC(=O)[C@@H](NC(=O)CNC(=O)[C@H](CCC(N)=O)NC(=O)C(C)(C)NC(=O)[C@@H](N)Cc1c[nH]cn1)[C@@H](C)O)[C@@H](C)O)C(C)C)[C@@H](C)O)C(C)C)C(=O)N[C@@H](CCC(=O)O)C(=O)N[C@@H](C)C(=O)NC(C)(C)C(=O)NCC(=O)O [Peptide 201] (H-H[Aib]QGTFTSDVSK[αMeF]LDTK([AEEA-AEEA-γGlu-C18 diacid])RARDFVAWLEA[Aib]G-OH) |
|  |  |  | 0.0709 nM | 0.5 | 0.0182 nM | CC[C@H](C)[C@H](NC(=O)[C@H](Cc1c[nH]c2ccccc12)NC(=O)[C@H](CCC(N)=O)NC(=O)[C@@H](NC(=O)[C@H](Cc1ccccc1)NC(=O)[C@H](CC(=O)O)NC(=O)[C@H](CCCCNC(=O)COCCOCCNC(=O)COCCOCCNC(=O)CC[C@H](NC(=O)CCCCCCCCCCCCCCCCC(=O)O)C(=O)O)NC(=O)[C@H](C)NC(=O)C(C)(C)NC(=O)[C@H](CCCNC(=N)N)NC(=O)[C@H](CO)NC(=O)[C@H](CC(=O)O)NC(=O)[C@H](CC(C)C)NC(=O)[C@](C)(Cc1ccccc1)NC(=O)[C@H](CCCCN)NC(=O)[C@H](CO)NC(=O)[C@@H](NC(=O)[C@H](CC(=O)O)NC(=O)[C@H](CO)NC(=O)[C@@H](NC(=O)[C@](C)(Cc1ccccc1)NC(=O)[C@H](CO)NC(=O)CNC(=O)[C@H](Cc1c[nH]cn1)NC(=O)C(C)(C)NC(=O)[C@@H](N)Cc1c[nH]cn1)[C@@H](C)O)C(C)C)C(C)C)C(=O)N[C@@H](C)C(=O)N[C@@H](CC(N)=O)C(=O)N[C@H](C(N)=O)[C@@H](C)O [Peptide 206] (H-H[Aib]HGS[αMeF]TSDVSK[αMeF]LDSR[Aib]AK([AEEA-AEEA-γGlu-C18 diacid])DFVQWIANT-NH2) |

Continued, compound first:

| Structure (SMILES) | EC50 [1, 3] | % Relative Potency Ratio ([1]; Table 6) | EC50 [2, 3] | EC50 [1, 4] | % Relative Potency Ratio ([1]; Table 7) | EC50 [2, 4] |
| --- | --- | --- | --- | --- | --- | --- |
| CC(C)C[C@H](NC(=O)[C@H](Cc1c[nH]c2ccccc12)NC(=O)[C@H](CCC(N)=O)NC(=O)[C@@H](NC(=O)[C@H](Cc1ccccc1)NC(=O)[C@H](CC(=O)O)NC(=O)[C@H](CCCNC(=N)N)NC(=O)[C@H](C)NC(=O)[C@H](CCCNC(=N)N)NC(=O)[C@H](CCCCNC(=O)COCCOCCNC(=O)COCCOCCNC(=O)CC[C@H](NC(=O)CCCCCCCCCCCCCCCCC(=O)O)C(=O)O)NC(=O)[C@@H](NC(=O)[C@H](CC(=O)O)NC(=O)[C@H](CC(C)C)NC(=O)[C@](C)(Cc1ccccc1)NC(=O)[C@H](CCCCN)NC(=O)[C@H](CO)NC(=O)[C@@H](NC(=O)[C@H](CC(=O)O)NC(=O)[C@H](CO)NC(=O)[C@@H](NC(=O)[C@H](Cc1ccccc1)NC(=O)[C@@H](NC(=O)CNC(=O)[C@H](CCC(N)=O)NC(=O)C(C)(C)NC(=O)[C@@H](N)Cc1c[nH]cn1)[C@@H](C)O)[C@@H](C)O)C(C)C)[C@@H](C)O)C(C)C)C(=O)N[C@@H](CCC(=O)O)C(=O)N[C@@H](C)C(=O)NC(C)(C)C(=O)NCC(=O)O [Peptide 202] (H-H[Aib]QGTFTSDVSK[αMeF]LDTK([AEEA-AEEA-γGlu-C18 diacid])RARDFVQWLEA[Aib]G-OH; N-terminus assumed) | 0.0178 nM | 26.9 | 0.242 nM |  |  |  |
| CC[C@H](C)[C@H](NC(=O)[C@H](Cc1c[nH]c2ccccc12)NC(=O)[C@H](CCC(N)=O)NC(=O)[C@@H](NC(=O)[C@H](Cc1ccccc1)NC(=O)[C@H](CC(=O)O)NC(=O)[C@H](CCCCNC(=O)COCCOCCNC(=O)COCCOCCNC(=O)CC[C@H](NC(=O)CCCCCCCCCCCCCCCCC(=O)O)C(=O)O)NC(=O)[C@H](C)NC(=O)[C@H](C)NC(=O)[C@H](CCCNC(=N)N)NC(=O)[C@H](CO)NC(=O)[C@H](CC(=O)O)NC(=O)[C@H](CC(C)C)NC(=O)[C@](C)(Cc1ccccc1)NC(=O)[C@H](CCCCN)NC(=O)[C@H](CO)NC(=O)[C@@H](NC(=O)[C@H](CC(=O)O)NC(=O)[C@H](CO)NC(=O)[C@@H](NC(=O)[C@](C)(Cc1ccccc1)NC(=O)[C@H](CO)NC(=O)CNC(=O)[C@H](Cc1c[nH]cn1)NC(=O)C(C)(C)NC(=O)[C@@H](N)Cc1c[nH]cn1)[C@@H](C)O)C(C)C)C(C)C)C(=O)N[C@@H](C)C(=O)N[C@@H](CC(N)=O)C(=O)N[C@H](C(N)=O)[C@@H](C)O [Peptide 205] (H-H[Aib]HGS[αMeF]TSDVSK[αMeF]LDSRAAK([AEEA-AEEA-γGlu-C18 diacid])DFVQWIANT-NH2) |  |  |  | 0.0299 nM | 0.5 | 0.00814 nM |
| CC[C@H](C)[C@H](NC(=O)C(C)(C)NC(=O)[C@H](CCC(N)=O)NC(=O)[C@@H](NC(=O)[C@H](Cc1ccccc1)NC(=O)[C@H](CC(=O)O)NC(=O)[C@H](CCCCNC(=O)COCCOCCNC(=O)COCCOCCNC(=O)CC[C@H](NC(=O)CCCCCCCCCCCCCCCCC(=O)O)C(=O)O)NC(=O)[C@H](C)NC(=O)[C@H](C)NC(=O)[C@H](CCC(N)=O)NC(=O)[C@H](CO)NC(=O)[C@H](CC(=O)O)NC(=O)[C@H](CC(C)C)NC(=O)[C@](C)(Cc1ccccc1)NC(=O)[C@H](CCCCN)NC(=O)[C@H](CO)NC(=O)[C@@H](NC(=O)[C@H](CC(=O)O)NC(=O)[C@H](CO)NC(=O)[C@@H](NC(=O)[C@](C)(Cc1ccccc1)NC(=O)[C@H](CO)NC(=O)CNC(=O)[C@H](Cc1c[nH]cn1)NC(=O)C(C)(C)NC(=O)[C@@H](N)Cc1c[nH]cn1)[C@@H](C)O)C(C)C)C(C)C)C(=O)N[C@@H](C)C(=O)N[C@@H](CC(N)=O)C(=O)N[C@H](C(N)=O)[C@@H](C)O [Peptide 207] (H-H[Aib]HGS[αMeF]TSDVSK[αMeF]LDSQAAK([AEEA-AEEA-γGlu-C18 diacid])DFVQ[Aib]IANT-NH2) |  |  |  | 0.178 nM | 1.1 | 0.0962 nM |
| CC[C@H](C)[C@H](NC(=O)[C@H](Cc1c[nH]c2ccccc12)NC(=O)[C@H](CCC(N)=O)NC(=O)[C@@H](NC(=O)[C@H](Cc1ccccc1)NC(=O)[C@H](CC(=O)O)NC(=O)[C@H](CCCCNC(=O)CC[C@H](NC(=O)CCCCCCCCCCCCCCCCC(=O)O)C(=O)O)NC(=O)[C@H](C)NC(=O)[C@H](C)NC(=O)[C@H](CCCNC(=N)N)NC(=O)[C@H](CO)NC(=O)[C@H](CC(=O)O)NC(=O)[C@H](CC(C)C)NC(=O)[C@](C)(Cc1ccccc1)NC(=O)[C@H](CCCCN)NC(=O)[C@H](CO)NC(=O)[C@@H](NC(=O)[C@H](CC(=O)O)NC(=O)[C@H](CO)NC(=O)[C@@H](NC(=O)[C@H](Cc1ccccc1)NC(=O)[C@@H](NC(=O)CNC(=O)[C@H](CCC(N)=O)NC(=O)C(C)(C)NC(=O)[C@@H](N)Cc1c[nH]cn1)[C@@H](C)O)[C@@H](C)O)C(C)C)C(C)C)C(=O)N[C@@H](C)C(=O)N[C@@H](CC(N)=O)C(=O)N[C@H](C(N)=O)[C@@H](C)O [Peptide 208] |  |  |  | 0.0644 nM | 20.2 | 0.658 nM |
